Kp data for two compounds are collected here from patent US9546175B2, “Organic compounds” (Intra-Cellular Therapies, Inc., priority 2014, dated 2017).

SMILES strings stand for the structures. Some results are limits rather than exact numbers.

The series is described as follows: Pharmacokinetic analysis in mice, plasma and brain levels by LC-MS/MS. The conditions noted are these: mouse, male C57BL/6 mice, 10 mg/kg oral (PO), 0.25-2 h, read-out: B/P ratio (Brain AUC(0-2h)/Plasma AUC(0-2h)). It is filed as in vivo. On the procedure:
Animals: Male, C57BL/6 mice (Jackson Labs, 25-30 g in body weight) are provided by Jackson Laboratories. Up to five mice are housed per cage and are maintained under a 12 hour light/dark cycle with access to food and water ad libitum. All procedures for the handling and use of animals follow the guidelines of the Institutional Animal Care and Use Committee (IACUC) of Columbia University, in accordance with NIH guidelines. Eight week-old mice (N=3/dose level or treatment group) are used in the experiments.
Experimental Treatment: Compounds: Selected Compounds of the Invention are evaluated in the present study. […]
Compound Preparation: Powdered stocks of the test compound(s) are measured and dissolved in 3% 1N HCl, 5% Labrasol and 92% of 5% TPGS in 0.05M Citrate buffer (CB, pH 4.0). […]
Treatment of Animals: Mice (N=3 mice/dose/time point) receive a 10 mg/kg oral (PO) dose of the test compound(s) at time 0. […] Plasma and brain tissue samples are processed and analyzed by the analytical group using LC-MS/MS methods, as described below. […]
Each tube is vortexed, then centrifuged for 20 min at 15000 rpm using a Tomy benchtop centrifuge at 4° C., Standard is an internal standard used for LC-MS/MS quantitation. […]
Each compound is detected and quantified using Multiple Reaction Monitoring (MRM) of positive electrospray mode with a Waters QuattroMicro™ mass spectrometry system. […]

With `CC(C)Cn1c(=O)n(C)c(=O)c2c(Nc3ccccc3)n(Cc3ccc(S(N)(=O)=O)cc3)nc21` [Example 1, 4-((7-Isobutyl-5-methyl-4,6-dioxo-3-(phenylamino)-4,5,6,7-tetrahydropyrazolo[3,4-d]pyrimidin-2-yl)methyl)benzenesulfonamide], the Kp was at most 0.05. In the case of `CC(C)Cn1c(=O)n(C)c(=O)c2c(Nc3ccccc3)n(Cc3ccc(C(=O)O)cc3)nc21` [Example 2, 4-((7-isobutyl-5-methyl-4,6-dioxo-3-(phenylamino)-4,5,6,7-tetrahydropyrazolo[3,4-d]pyrimidin-2-yl)methyl)benzoic acid], the Kp was at most 0.05.
